Type in all cases: cell-based
Experiment [1] deals with T1, LTRPC7 (Mus musculus, UniProt Q923J1).
T1 construct: expressed in transfected cells
Briefly: Equimolar substitution of 10 mM Ca^2+ by other divalent metal ions, whole-cell patch-clamp. To be noted: 10 mM test cation replacing 10 mM Ca^2+, HEK-293 over-expressing LTRPC7; for effect on outward current / effect on inward current: 60 s; for effect on outward current: +80 mV; for effect on inward current / increase in inward current compared to Ca^2+: -80 mV; for increase in inward current compared to Ca^2+: no Mg^2+. Here is the method:
(§1) For patch-clamp experiments, cells grown on glass coverslips were transferred to the recording chamber and kept in a standard modified Ringer's solution of the following composition (in mM): NaCl 145, KCl 2.8, CsCl 10, CaCl2 1, MgCl2 2, glucose 10, Hepes.NaOH 10, pH 7.2. In some experiments, nominally Ca^2+ and/or Mg^2+-free extracellular solutions or isotonic Ca^2+ solutions (120 mM CaCl2) were applied by pressure ejection from wide-tipped pipettes. Intracellular pipette-filling solutions contained (in mM): Cs-glutamate 145, NaCl 8, MgCl2 1, Cs-BAPTA 10, pH 7.2 adjusted with CsOH. In some experiments, Cs-glutamate was replaced equimolarly by K-glutamate or N-methyl-D-glucamine-chloride. Patch-clamp experiments were performed in the tight-seal whole-cell configuration at 21-25° C. High-resolution current recordings were acquired by a computer-based patch-clamp amplifier system (EPC-9, HEKA, Lambrecht, Germany). Sylgard-coated patch pipettes had resistances between 2-4 M after filling with the standard intracellular solution. Immediately following establishment of the whole-cell configuration, voltage ramps of 50 ms duration spanning the voltage range of −100 to +100 mV were delivered from a holding potential of 0 mV at a rate of 0.5 Hz over a period of 200 to 400 seconds. All voltages were corrected for a liquid junction potential of 10 mV between external and internal solutions when internal solutions contained glutamate. Currents were filtered at 2.3 kHz and digitized at 100 μs intervals. Capacitive currents and series resistance were determined and corrected before each voltage ramp using the automatic capacitance compensation of the EPC-9. The low-resolution temporal development of currents at a given potential was extracted from individual ramp current records by measuring the current amplitudes at voltages of −80 mV or +80 mV.
LTRPC7 represents an ion channel that is selective for divalent cations at negative membrane potentials and its activity is regulated by intracellular levels of Mg.nucleotides (Nadler et al., 2001). Although the channel readily permeates monovalent ions upon removal of all divalent ions, inward currents carried by LTRPC7 under physiological conditions are largely carried by the dominant extracellular ion species Ca^2+ and Mg^2+. Ion currents carried by LTRPC7 have therefore been designated MagNuM (for Magnesium.Nucleotide-regulated Metal ion currents). In order to assess the permeation properties of LTRPC7 for other divalent ions, we measured ionic currents in substitution experiments, where 10 mM Ca^2+ was replaced with 10 mM of other divalent cations (FIG. 7). In these experiments, HEK-293 cells expressing LTRPC7 were kept in a bath solution containing 10 mM Ca^2+, without Mg^2+, and development of MagNuM was monitored by whole-cell patch-clamp as described previously (Nadler et al., 2001). When the current had reached maximal amplitude, cells were transiently exposed to an extracellular solution containing 10 mM of the test cation applied via a puffer pipette for a period of 60 s.

Experiment [2] concerns the target T1, LTRPC7. As to the kind of experiment: Permeation of divalent metal ions in isotonic solutions, whole-cell patch-clamp. Conditions: for effect on outward current / effect on inward current: isotonic solution (120 mM) of test cation for 60 s, HEK-293 over-expressing LTRPC7; for effect on outward current: +80 mV; for effect on inward current: -80 mV; for permeation sequence based on peak inward currents: isotonic solutions. Here is the method: as §1
The use of isotonic solutions to probe divalent cation entry through LTRPC7 avoids complications in permeation properties arising from ion-ion interactions, and therefore allows unequivocal interpretation of inward currents—maintained or increased inward currents can only be consistent with permeation of the available extracellular cation. Isotonic solutions of 120 mM of each divalent ion yielded appropriate osmolarities within 10 mOsm from the standard bath and pipette solutions. In this series of experiments, the cells were bathed in the standard external solution containing 1 mM Ca^2+ and 2 mM Mg^2+. At 200 s, when MagNuM had reached its full amplitude, isotonic solutions of each transition metal were applied for 60 s via a puffer pipette.

Experiment [3] concerns the target T1, LTRPC7. Briefly: Simultaneous patch-clamp of MagNuM and fura-2 measurement of [Ca^2+]i, block by Mg.ATP. To be noted: 3 mM Mg.ATP in internal solution. The text has this: Based on the above permeation data, we conclude that LTRPC7 must be viewed as a potential entry pathway for a wide variety of trace and toxic metal ions. […] We therefore performed two sets of experiments to address this issue. In the first, we assayed Ca^2+ permeation of LTRPC7 under conditions in which intracellular Ca^2+ is left unbuffered and LTRPC7 is activated or suppressed by manipulation of patch pipette [ATP]i. To this end, HEK-293 cells expressing LTRPC7 were kept in a bath solution with 2 mM each of Ca^2+ and Mg^2+ and were perfused with a Cs-glutamate-based internal solution containing 200 μM fura-2. Simultaneous development of MagNuM was monitored under whole-cell patch-clamp and delivering, from a holding potential of 0 mV, repetitive voltage ramps that spanned −100 to +100 mV over 50 ms at a rate of 0.5 Hz. When Mg.ATP was absent in the pipette, MagNuM rapidly activated, as witnessed by the increase in both inward and outward currents (FIG. 11A) as well as its characteristic current-voltage relationship (FIG. 11B). […] The progressive decrease in amplitude of hyperpolarization-driven changes in [Ca^2+]i observed under these conditions is likely due to increased Ca^2+ buffering as fura-2 equilibrates with the cytosol at its final concentration of 200 μM. […]
(In general: Patch clamp records ionic current or voltage across a cell membrane.)

In experiment [4] the target is T1, LTRPC7. As to the kind of experiment: Permeation and block by trivalent metal ions, whole-cell patch-clamp. To be noted: for suppression of inward or outward currents carried by LTRPC7: 10 μM (data not shown); for effect on outward currents / effect on inward currents: external solution with 10 mM Ca^2+ without Mg^2+; for effect on outward currents: +80 mV; for effect on inward currents: -80 mV. Here is the method: as §1
We next tested a series of toxic trivalent metal ions (FIG. 10), which we suspected to not permeate through LTRPC7.

Entries after “also recorded” stand apart in the source; their conditions may differ.

T1 sequence (Q923J1 2-1863 limits assumed): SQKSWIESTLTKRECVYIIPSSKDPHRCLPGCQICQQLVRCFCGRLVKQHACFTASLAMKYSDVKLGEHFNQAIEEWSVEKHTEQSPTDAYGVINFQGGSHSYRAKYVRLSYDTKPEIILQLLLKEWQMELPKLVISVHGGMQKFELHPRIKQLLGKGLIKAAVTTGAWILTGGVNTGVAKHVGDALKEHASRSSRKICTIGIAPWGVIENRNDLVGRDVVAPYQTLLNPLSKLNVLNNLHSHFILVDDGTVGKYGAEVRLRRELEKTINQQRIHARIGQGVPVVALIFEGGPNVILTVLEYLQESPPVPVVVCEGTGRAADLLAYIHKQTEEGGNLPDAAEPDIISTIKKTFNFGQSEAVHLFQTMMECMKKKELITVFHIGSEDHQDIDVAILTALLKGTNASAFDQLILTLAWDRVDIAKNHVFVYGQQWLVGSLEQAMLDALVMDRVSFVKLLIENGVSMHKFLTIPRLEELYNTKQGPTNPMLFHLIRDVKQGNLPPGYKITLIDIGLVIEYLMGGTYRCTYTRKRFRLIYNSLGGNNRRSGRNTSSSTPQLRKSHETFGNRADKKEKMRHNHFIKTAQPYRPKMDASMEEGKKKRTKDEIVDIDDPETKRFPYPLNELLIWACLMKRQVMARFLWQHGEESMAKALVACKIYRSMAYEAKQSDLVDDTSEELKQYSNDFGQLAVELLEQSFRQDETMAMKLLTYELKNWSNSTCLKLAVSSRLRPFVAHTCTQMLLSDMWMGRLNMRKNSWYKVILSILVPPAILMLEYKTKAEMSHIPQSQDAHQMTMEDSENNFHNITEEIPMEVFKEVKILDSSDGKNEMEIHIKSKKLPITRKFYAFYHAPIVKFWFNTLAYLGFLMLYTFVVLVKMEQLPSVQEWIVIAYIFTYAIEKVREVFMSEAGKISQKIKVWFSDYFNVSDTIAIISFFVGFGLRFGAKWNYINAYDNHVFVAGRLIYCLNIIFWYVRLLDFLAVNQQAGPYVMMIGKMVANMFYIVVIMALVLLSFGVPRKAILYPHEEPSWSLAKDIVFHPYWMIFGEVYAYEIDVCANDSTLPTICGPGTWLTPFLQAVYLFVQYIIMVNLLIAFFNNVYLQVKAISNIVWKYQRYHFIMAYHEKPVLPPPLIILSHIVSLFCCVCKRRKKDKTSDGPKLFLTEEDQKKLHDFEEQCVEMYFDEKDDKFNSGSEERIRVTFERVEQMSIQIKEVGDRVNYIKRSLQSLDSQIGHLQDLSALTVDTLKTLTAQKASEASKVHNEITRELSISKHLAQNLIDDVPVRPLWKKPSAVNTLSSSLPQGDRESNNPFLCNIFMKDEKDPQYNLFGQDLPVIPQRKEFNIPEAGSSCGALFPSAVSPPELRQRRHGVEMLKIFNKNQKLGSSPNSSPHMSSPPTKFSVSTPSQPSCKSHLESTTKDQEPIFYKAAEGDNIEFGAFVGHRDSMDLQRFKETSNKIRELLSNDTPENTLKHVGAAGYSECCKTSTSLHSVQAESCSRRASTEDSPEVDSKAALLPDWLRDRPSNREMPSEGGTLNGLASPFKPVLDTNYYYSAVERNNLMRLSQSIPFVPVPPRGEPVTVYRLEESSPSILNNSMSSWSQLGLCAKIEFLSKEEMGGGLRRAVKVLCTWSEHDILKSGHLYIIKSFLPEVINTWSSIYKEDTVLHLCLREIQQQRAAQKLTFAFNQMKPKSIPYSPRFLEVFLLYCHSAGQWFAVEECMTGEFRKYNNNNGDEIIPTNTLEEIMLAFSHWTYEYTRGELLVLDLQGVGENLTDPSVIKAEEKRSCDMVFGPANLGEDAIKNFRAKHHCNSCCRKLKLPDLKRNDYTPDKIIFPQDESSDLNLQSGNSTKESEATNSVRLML

On to `[Sr+2]` [Sr^2+], for which, in experiment [1], the “effect on outward current” value was “increases of the outward current” and the “effect on inward current” value was “slight to moderate increases of the inward current”. Also, in experiment [1] (listed as Sr2+), the “effect on outward current” value is reported as “increase of the outward current” and the “effect on inward current” value is reported as “slight to moderate increase of the inward current”. Besides, in experiment [2], the “effect on outward current” value was “relatively minor inhibitions of the outward current”; the “effect on inward current” value is reported as “moderate increases of the inward”; the “permeation sequence based on peak inward currents” value (“permeation sequence based” below) was “more effectively transported than Ca^2+ and Mg^2+”.
Take `[Ba+2]` [Ba^2+]: in experiment [1], the “effect on outward current” value was “increase of the outward current” and the “effect on inward current” value is recorded as “slight to moderate increase of the inward current”. In addition, in experiment [2], the “effect on outward current” value is recorded as “relatively minor inhibitions of the outward current”; the “effect on inward current” value is reported as “moderate increases of the inward”; the “permeation sequence based” value is “more effectively transported than Ca^2+ and Mg^2+”.
With `[Mg+2]` [Mg^2+], in experiment [1], the “effect on outward current” value is “strongest block of outward currents; also recorded: block of the outward current”, the “effect on inward current” value is recorded as “slight to moderate increase of the inward current” and the “increase in inward current compared to Ca^2+” value (“increase in inward current” for short) is “less than double”. The “effect on outward current” value in experiment [2] is given as “block of the outward current”.
Regarding `Nc1ncnc2c1ncn2[C@@H]1O[C@H](COP(=O)(O)OP(=O)([O-])OP(=O)([O-])O)[C@@H](O)[C@H]1O.[Mg+2]` [Mg.ATP], in experiment [3] (HEK-293 over-expressing LTRPC7), the “[Ca^2+]i (fura-2)” value is “remained similarly steady; also recorded: remains at steady basal levels”. Further, the “LTRPC7 activity (MagNuM currents)” value in experiment [3] (bath 2 mM Ca^2+ and 2 mM Mg^2+) is listed as “little change in LTRPC7 activity”.
`[Cd+2]` [Cd^2+]: in experiment [1], the “effect on outward current” value is “increases of the outward current” and the “effect on inward current” value is reported as “slight to moderate increases of the inward current”. In experiment [1] (listed as Cd 2+), the “effect on outward current” value is “increase of the outward current” and the “effect on inward current” value is reported as “slight to moderate increase of the inward current”.
For `[Gd+3]` [Gd^3+], in experiment [4], the “suppression of inward or outward currents carried by LTRPC7” value is “ineffective”. For the same compound, in experiment [4] (10 mM, Gd^3+ versus La^3+), the “relative potency as blocker of MagNuM” value is on record as “more potent inhibitor; also recorded: more potent blocker of MagNuM”. In addition, in experiment [4] (10 mM), the “effect on outward currents” value is listed as “completely suppressed” and the “effect on inward currents” value is “inhibited inward currents with no sign of significant permeation”.
For `[Zn+2]` [Zn^2+], in experiment [1], the “effect on outward current” value is recorded as “block of outward currents; also recorded: block of the outward current”, the “effect on inward current” value is “large increase of the inward current” and the “increase in inward current” value was “greater than three-fold”.
As for `[Ni+2]` [Ni^2+], in experiment [1], the “effect on outward current” value is given as “block of outward currents; also recorded: block of the outward current”, the “effect on inward current” value was “large increase of the inward current” and the “increase in inward current” value is reported as “greater than three-fold”. In experiment [2], the “effect on outward current” value is listed as “strong block of the outward current”, the “effect on inward current” value is given as “large increase of the inward” and the “permeation sequence based” value is “most permeant metal”.
For `[La+3]` [La^3+], the “suppression of inward or outward currents carried by LTRPC7” value in experiment [4] is on record as “ineffective”. Moreover, in experiment [4] (10 mM), the “effect on outward currents” value is “far less effective in suppressing outward currents” and the “effect on inward currents” value is recorded as “inhibited inward currents with no sign of significant permeation”.
Turning to `[Co+2]` [Co^2+], in experiment [1], the “effect on outward current” value was “block of outward currents; also recorded: block of the outward current”, the “effect on inward current” value is listed as “slight to moderate increase of the inward current” and the “increase in inward current” value was “less than double”. For the same compound, in experiment [2], the “effect on outward current” value was “strong block of the outward current” and the “effect on inward current” value is “gradual increase of the inward current”.
Take `[Ca+2]` [Ca^2+]: in experiment [2], the “effect on outward current” value is reported as “block of the outward current” and the “effect on inward current” value is “increase of the inward”. In experiment [2] (listed as CaCl2), the “effect on outward current” value is listed as “strongly inhibited outward currents” and the “effect on inward current” value was “enhanced inward currents”.
